Source: patent publication US20060099267A1, “High-dosage extended-release formulation of gepirone” (Fabre-Kramer Pharmaceuticals, Inc., priority 2004, published 2006)
Counter-ions that a name gives are not always drawn.

Legend:
[1] = in vivo; cited from earlier work
[2] = tested on: presynaptic α-2-adrenoceptor; settings: cited from earlier work
[3] = tested on: post-synaptic receptors in the hippocampus; settings: cited from earlier work
[4] = molecular target: T1, 5-HT1A receptors (Homo sapiens, UniProt P08908); settings: cited from earlier work
T1 sequence (P08908 1-422): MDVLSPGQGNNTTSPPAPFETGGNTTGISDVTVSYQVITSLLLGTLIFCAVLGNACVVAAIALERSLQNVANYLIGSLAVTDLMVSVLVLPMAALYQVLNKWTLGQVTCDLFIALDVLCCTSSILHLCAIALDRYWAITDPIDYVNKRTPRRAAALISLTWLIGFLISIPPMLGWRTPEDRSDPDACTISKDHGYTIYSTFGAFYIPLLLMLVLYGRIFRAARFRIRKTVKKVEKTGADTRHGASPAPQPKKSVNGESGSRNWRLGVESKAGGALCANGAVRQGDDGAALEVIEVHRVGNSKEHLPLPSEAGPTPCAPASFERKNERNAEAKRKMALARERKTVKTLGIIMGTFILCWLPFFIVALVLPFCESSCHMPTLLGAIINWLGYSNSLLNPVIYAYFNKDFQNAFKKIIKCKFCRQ

[5] = Open label, randomized, four-way crossover, single dose bioequivalence and pharmacokinetic study of extended-release gepirone tablets; assay type: in vivo, human; settings: 40-80 mg dose range
Excerpt: Heretofore, efficacy and pharmacokinetic data for extended release gepirone tablets have been primarily obtained by administering one or multiple 20-mg extended-release gepirone tablets (similar to that described in the Preparation Example above).
To this end, an open label, randomized, four-way crossover, single dose study design was used with a washout phase of one week between different treatments. During each study period, the subjects were hospitalized from the afternoon before until 36 hours after gepirone administration. Following discharge, blood sample collections were taken at 48, 60, and 72 hours post-administration. […]
To determine the bioequivalence of one 80-mg extended-release gepirone tablet versus four 20-mg extended-release gepirone tablets the following pharmacokinetic parameter were calculated for each subject and treatment: • tmax (TMAX) • The actual time of occurrence of Cmax. • Cmax (CMAX) • The measured maximum concentration in plasma after single dosing. • dn-Cmax (DCMAX) • The dose-normalized Cmax was calculated as Cmax/Dose. • λZ (LZ) and t1/2 (THALF) • The slope (β) of the terminal log-linear phase of the concentration-versus-time curve was determined by linear regression. […] The terminal elimination rate constant (λZ) was defined as −β from which the elimination half-life (t1/2) was calculated as […]. […]

[6] = immediate-release formulations; cited from earlier work
[7] = immediate-release formulations; cited from earlier work; remark: listed apart in the source

Row | Compound | antidepressant-like characteristics in pre-clinical tests [1] | activity at presynaptic α-2-adrenoceptor [2] | agonism at post-synaptic receptors in the hippocampus [3] | affinity for 5-HT1A receptors [4] | dose proportionality [5] | T50 (time until 50% of the drug has been released under controlled in vitro conditions) [6] | time to maximum drug concentration of gepirone in the bloodstream (Tmax) [7]
1 | c1cnc(N2CCNCC2)nc1 [1-PP, 1-(2-pyrimidinyl)piperazine] | did not exhibit antidepressant-like characteristics | antagonist |  |  |  |  | 
2 | CC1(C)CC(=O)N(CCCCN2CCN(c3ncccn3)CC2)C(=O)C1O (centres unmarked) [3′-OH gepirone] |  |  | full agonism | significant affinity |  |  | 
3 | CC1(C)CC(=O)N(CCCCN2CCN(c3ncccn3)CC2)C(=O)C1 [gepirone, 4,4-dimethyl-1-[4-[4-(2-pyrimidinyl)-1-piperazinyl]-butyl]-2,6-piperidinedione hydrochloride] |  |  | partial agonist |  | dose proportionality | 2.5 to 3 h | about 1 hour
